Experimental data published in patent US10016354B2, “Compositions containing polymeric, ionic compounds comprising imidazolium groups” (BASF SE, priority 2011, dated 2018).
Values after ≈ are worked out from the molar mass of the structure shown.

How the values were obtained:
[1] = tested on: Staphylococcus aureus ATCC 29213; test: Minimum Inhibitory Concentration (MIC) test; format: cell-based; settings: Table 3, known antibiotics as control; 24 h at 37° C.
[2] = tested on: Pseudomonas aeruginosa ATCC 27853; test: Minimum Inhibitory Concentration (MIC) test; format: cell-based; settings: Table 3, known antibiotics as control; 24 h at 37° C.

CC1=C(C(=O)O)N2C(=O)[C@@H](NC(=O)[C@H](N)c3ccccc3)[C@H]2SC1 [Cephalexine]
MIC Staphylococcus aureus ATCC 29213 = DSM 2569 [1]: 4 µg/mL (≈ 0.0115 mM)
MIC Pseudomonas aeruginosa ATCC 27853 = DSM 1117 [2]: >4096 µg/mL
